{"source": "patent US6620826B2", "about": "“Endothelin receptor antagonists” (SmithKline Beecham Corporation, priority 1994, dated 2003)", "data": [{"smiles": "CCCCc1ncc(/C=C(\\Cc2cc3c(cc2OC)OCO3)C(=O)O)n1-c1ccc(OC)cc1OCc1nnn(CCC)n1", "note": "[Example 24, (E)-3-[2-Butyl-1-[2-(2-propyl-2H-tetrazol-5-yl)methoxy-4-methoxyphenyl]-1H-imidazol-5-yl]-2-[(2-methoxy-4,5-methylenedioxyphenyl)methyl]-2-propenoic Acid]", "values": [{"measurement": "melting point", "result": "110 to 118", "unit": "°C"}]}, {"smiles": "CCCCc1ncc(/C=C(\\Cc2cc3c(cc2OC)OCO3)C(=O)O)n1-c1ccc(OC)cc1OCc1nnnn1CC", "note": "[Example 23, (E)-3-[2-Butyl-1-[2-(1-ethyl-1H-tetrazol-5-yl)methoxy-4-methoxyphenyl]-1H-imidazol-5-yl]-2-[(2-methoxy-4,5-methylenedioxyphenyl)methyl]-2-propenoic Acid]", "values": [{"measurement": "melting point", "result": "185 to 190", "unit": "°C"}]}]}
